Results taken from patent EP0972764A1, “Aminoalcohols and aminoketones as CNS active agents” (Universita Degli Studi di Firenze, priority 1998, dated 2000).

Legend:
[1] = First pass cerebral extraction in the rat (blood brain barrier crossing of radiolabelled compound); assay type: in vivo; settings: intracardiac injection, physiological rCBF range 0.8-1 ml/min/g
Experimental: Compounds I, prepared according to the present invention and containing radioactive isotopes were tested inrespect of their capacity to cross the brain blood barrier, since CNS receptors tracers should be able to pass through the intact blood brain barrier following intravenous injection.
Measures of the rat brain extraction of the compounds was determined following known procedures based on the use of labelled reference substances with known extraction.
In the rat the first pass cerebral extraction of N-benzyl-3-(4-fluoro-2-^125I-iodo-fenil)-hydroxypropylamine [compound I with R1 = H and R2 = Benzyl, Q = single bond Wn = 2-^125I, 4-F, n = 2, A = OH, m = 0, a = single bond] was evaluated measuring the radioactive compounds concentration in the brain, after an intracardiac injection of a mixture of the tested compound, a completely extracted tracer, as the albumin microspheres labelled with ^99mTc (undergoing to a sort of entrapment in the brain microvasculature) and a non extracted tracer as the sodium salt of hortoiodoippuric acid.

[2] = molecular target: T1, S2 (Serotonine) receptors (Rattus norvegicus, UniProt P14842); assay: In vitro inhibition of 3H-spiperone binding, S2 assay (rat brain membranes)
T1 construct: preparation of rat brain membrane enriched in D2 (Dopamine) or S2 (Serotonine) receptors; from tissue; host or cells: rat brain membranes
T1 sequence (P14842 whole entry): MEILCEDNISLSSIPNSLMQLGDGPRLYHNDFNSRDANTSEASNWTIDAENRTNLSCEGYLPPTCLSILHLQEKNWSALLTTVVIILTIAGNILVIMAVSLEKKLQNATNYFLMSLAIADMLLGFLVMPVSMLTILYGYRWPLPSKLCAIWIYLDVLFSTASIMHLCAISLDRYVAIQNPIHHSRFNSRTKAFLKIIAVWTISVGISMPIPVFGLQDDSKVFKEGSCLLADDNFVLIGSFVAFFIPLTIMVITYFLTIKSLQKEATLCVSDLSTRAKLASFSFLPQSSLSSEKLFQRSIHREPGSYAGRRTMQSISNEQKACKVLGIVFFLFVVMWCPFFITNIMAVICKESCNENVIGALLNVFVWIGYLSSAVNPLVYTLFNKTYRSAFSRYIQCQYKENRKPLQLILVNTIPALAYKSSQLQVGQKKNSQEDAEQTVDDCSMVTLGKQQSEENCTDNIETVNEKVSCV
Experimental: The compounds I, prepared according to the present invention, were tested in vitro on preparation of rat brain membrane enriched in D2 (Dopamine) or S2 (Serotonine) receptors accordingly known methods to perform inhibition experiments of the binding of ^3H-receptors ligands. For the S2 receptor assay the method described by List and Seeman (List S.J. and Seeman P. Proc. Natl. Acad. Sci. USA. 78:2620-2624, 1981) was used with slight adaptations.

[3] = molecular target: T2, D2 (Dopamine) receptors (Rattus norvegicus, UniProt P61169); assay: In vitro inhibition of 3H-spiperone binding, D2 assay (rat brain membranes)
T2 construct: preparation of rat brain membrane enriched in D2 (Dopamine) or S2 (Serotonine) receptors; from tissue; host or cells: rat brain membranes
T2 sequence (P61169 whole entry): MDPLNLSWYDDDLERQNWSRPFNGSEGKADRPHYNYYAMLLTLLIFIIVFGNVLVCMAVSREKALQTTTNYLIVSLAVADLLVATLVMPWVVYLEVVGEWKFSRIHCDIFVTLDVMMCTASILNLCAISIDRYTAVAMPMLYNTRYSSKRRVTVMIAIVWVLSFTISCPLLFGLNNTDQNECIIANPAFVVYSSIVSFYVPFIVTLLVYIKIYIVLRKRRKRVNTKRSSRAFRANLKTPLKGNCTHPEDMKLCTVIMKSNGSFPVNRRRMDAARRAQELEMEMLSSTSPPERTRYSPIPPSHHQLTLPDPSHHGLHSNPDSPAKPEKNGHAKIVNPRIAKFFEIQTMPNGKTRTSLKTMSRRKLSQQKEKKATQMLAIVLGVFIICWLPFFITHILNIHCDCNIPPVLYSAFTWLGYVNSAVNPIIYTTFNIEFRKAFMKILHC
Experimental: The compounds I, prepared according to the present invention, were tested in vitro on preparation of rat brain membrane enriched in D2 (Dopamine) or S2 (Serotonine) receptors accordingly known methods to perform inhibition experiments of the binding of ^3H-receptors ligands.
For the D2 assays the method described by Ferretti et al. (Life Sci 42(24):2457-65, 1988) was used.

Compound: OC(CCNCc1ccccc1)c1ccc(F)cc1[125I] (centres unmarked) [N-benzyl-3-(4-fluoro-2-^125I-iodo-fenil)-hydroxypropylamine]
- cerebral tissue extraction fraction [1]: about 50%

Compound: OC(CCNCc1ccccc1)c1ccc(F)cc1Br (racemic) [N-benzyl-3-(2-bromo-4-fluorophenyl)-3-hydroxypropylamine]
- IC50 ([2]; inhibition of ^3H-spiperone binding, S2 assay, tested in its racemic form): 18.7 µM
- IC50 ([3]; inhibition of ^3H-spiperone binding, D2 assay, tested in its racemic form): 34 µM

Compound: 2-[3-(4-fluorophenyl)-3-oxopropyl]-tetrahydro-2H-isoindole
- binding affinity, column T1 ([2]; compounds at 10 µM concentration, rat brain membrane, unit not given, column head T1, text says S2): 65
- binding affinity towards D2 receptors (column D2) ([3]; compounds at 10 µM concentration, rat brain membrane, unit not given): 12
